# Assays:
# [1] = tested on: Candida albicans ATCC 90028; test: CFU assay with C. albicans; assay type: cell-based; settings: for Estimate (difference between means of log values): control - treatment
# Outline: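 About 4×10^3–10^4 CFU of C. albicans (ATCC 90028 unless stated) exposed to test substance in 10 mM Tris, 5 mM glucose at pH 7.4 or pH 4 for 4 h at 37 °C. Survivors counted as colonies after 2 days at 30 °C; log counts compared with control.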
# [2] = Liposome leakage (carboxyfluorescein release); assay type: biochemical; settings: pH 6.0, % ± SD of leakage with Triton X-100, CF fluorescence 520 nm, 37°C, at least triplicate, DOPC/cholesterol liposomes
# Protocol: Dry lipid films were prepared by dissolving dioleoylphosphatidylcholine (1,2-dioleoyl-sn-Glycero-3-phoshocholine, >99% purity, Avanti Polar Lipids, Alabaster, AL) (60 mol%) (DOPC) and either ergosterol or cholesterol (both >99% purity, Sigma) (40 mol%) in chlorofom, and then removing the solvent by evaporation under vacuum overnight. Subsequently, buffer (10 mM Tris, pH 7.4) was added together with 0.1 M carboxyfluorescein (CF) (Sigma, St Louis, MO). After hydration, the lipid mixture was subjected to eight freeze-thaw cycles consisting of freezing in liquid nitrogen and heating to 60°C. Unilamellar liposomes of about Ø140 nm were generated by multiple extrusions through polycarbonate filters (pore size 100 nm) mounted in a LipoFastminiextruder (Avestin, Ottawa, Canada) at 22°C. Untrapped CF was then removed by two gel filtrations (Sephadex G-50) at 22°C, with Tris buffer as eluent. CF release was determined by monitoring the emitted fluorescence at 520 nm from liposome dispersions (10 mM lipid in 10 mM Tris). An absolute leakage scale was obtained by disrupting the liposomes at the end of the experiment through addition of 0.8 mM Triton X100 (Sigma, St Louis, MO), causing 100% release and dequenching of CF. Although calcein is frequently used for pH-dependent leakage studies, the high charge of this dye has been noted to influence its leakage behavior in the presence of highly cationic peptides. Instead, therefore, CF was used as a leakage marker at both pH 6.0 and 7.4, avoiding pH-dependent fluorescence effects through neutralization prior to probing the limiting leakage in case of pH 6.0 leakage. Throughout, a SPEX-fluorolog 1650 0.22-m double spectrometer (SPEX Industries, Edison, NJ) was used for the liposome leakage assay. Measurements were performed in at least triplicate at 37°C.
sequence,measurement,setting,value
"RIFKKEDCKYI [MSP66–76, eleven residues at the very tip of the loop (residue 66–76)]",Estimate (difference between means of log values),"[1]; 50 µM + 50 µM EDTA, pH 7.4, + 50 µM calcium chloride, experiment 1",0.4123
same,Estimate (difference between means of log values),"[1]; 50 µM + 50 µM EDTA, pH 7.4, + 50 µM calcium chloride, experiment 2",-0.3545
same,Estimate (difference between means of log values),"[1]; 50 µM + 50 µM EDTA, pH 7.4, + 50 µM calcium chloride, experiment 3",-0.7827
same,Estimate (difference between means of log values),"[1]; 50 µM + 50 µM EDTA, pH 7.4, + 50 µM calcium chloride, experiment 4",0.2633
same,Estimate (difference between means of log values),"[1]; 50 µM + 50 µM EDTA, pH 7.4, + 50 µM calcium chloride, experiment 5",0.02251
same,Estimate (difference between means of log values),"[1]; 50 µM + 50 µM EDTA, pH 7.4, + 75 µM calcium chloride, experiment 1",0.2228
same,Estimate (difference between means of log values),"[1]; 50 µM + 50 µM EDTA, pH 7.4, + 75 µM calcium chloride, experiment 2",-0.4921
same,Estimate (difference between means of log values),"[1]; 50 µM + 50 µM EDTA, pH 7.4, + 75 µM calcium chloride, experiment 3",-0.1876
same,Estimate (difference between means of log values),"[1]; 50 µM + 50 µM EDTA, pH 7.4, + 75 µM calcium chloride, experiment 4",-0.2469
same,Estimate (difference between means of log values),"[1]; 50 µM + 50 µM EDTA, pH 7.4, + 75 µM calcium chloride, experiment 5",-0.2312
same,Estimate (difference between means of log values),"[1]; 50 µM + 50 µM EDTA, pH 7.4, + 100 µM calcium chloride, experiment 1",0.07455
same,Estimate (difference between means of log values),"[1]; 50 µM + 50 µM EDTA, pH 7.4, + 100 µM calcium chloride, experiment 2",-0.1459
same,Estimate (difference between means of log values),"[1]; 50 µM + 50 µM EDTA, pH 7.4, + 100 µM calcium chloride, experiment 3",-0.4793
same,Estimate (difference between means of log values),"[1]; 50 µM + 50 µM EDTA, pH 7.4, + 100 µM calcium chloride, experiment 4",-0.1979
same,Estimate (difference between means of log values),"[1]; 50 µM + 50 µM EDTA, pH 7.4, + 100 µM calcium chloride, experiment 5",-0.3209
same,Estimate (difference between means of log values),"[1]; 50 µM + 50 µM EDTA, pH 7.4, + 200 µM calcium chloride, experiment 1",0.4296
same,Estimate (difference between means of log values),"[1]; 50 µM + 50 µM EDTA, pH 7.4, + 200 µM calcium chloride, experiment 2",-0.6341
same,Estimate (difference between means of log values),"[1]; 50 µM + 50 µM EDTA, pH 7.4, + 200 µM calcium chloride, experiment 3",-0.7050
same,Estimate (difference between means of log values),"[1]; 50 µM + 50 µM EDTA, pH 7.4, + 200 µM calcium chloride, experiment 4",-0.2560
same,Estimate (difference between means of log values),"[1]; 50 µM + 50 µM EDTA, pH 7.4, + 200 µM calcium chloride, experiment 5",0.04894
same,Estimate (difference between means of log values),"[1]; 50 µM + 50 µM EDTA, pH 7.4, no calcium, experiment 1",5.2769
same,Estimate (difference between means of log values),"[1]; 50 µM + 50 µM EDTA, pH 7.4, no calcium, experiment 2",4.2266
same,Estimate (difference between means of log values),"[1]; 50 µM + 50 µM EDTA, pH 7.4, no calcium, experiment 3",2.8351
same,Estimate (difference between means of log values),"[1]; 50 µM + 50 µM EDTA, pH 7.4, no calcium, experiment 4",4.2317
same,Estimate (difference between means of log values),"[1]; 50 µM + 50 µM EDTA, pH 7.4, no calcium, experiment 5",5.0824
same,Estimate (difference between means of log values),"[1]; 50 µM, no EDTA, pH 4, + 50 µM calcium chloride, experiment 1",2.5872
same,Estimate (difference between means of log values),"[1]; 50 µM, no EDTA, pH 4, + 50 µM calcium chloride, experiment 2",2.7886
same,Estimate (difference between means of log values),"[1]; 50 µM, no EDTA, pH 4, + 50 µM calcium chloride, experiment 3",1.3256
same,Estimate (difference between means of log values),"[1]; 50 µM, no EDTA, pH 4, + 50 µM calcium chloride, experiment 4",2.0744
same,Estimate (difference between means of log values),"[1]; 50 µM, no EDTA, pH 4, + 50 µM calcium chloride, experiment 5",1.7552
same,Estimate (difference between means of log values),"[1]; 50 µM, no EDTA, pH 4, + 75 µM calcium chloride, experiment 1",2.5170
same,Estimate (difference between means of log values),"[1]; 50 µM, no EDTA, pH 4, + 75 µM calcium chloride, experiment 2",1.9220
same,Estimate (difference between means of log values),"[1]; 50 µM, no EDTA, pH 4, + 75 µM calcium chloride, experiment 3",-0.3426
same,Estimate (difference between means of log values),"[1]; 50 µM, no EDTA, pH 4, + 75 µM calcium chloride, experiment 4",1.5746
same,Estimate (difference between means of log values),"[1]; 50 µM, no EDTA, pH 4, + 75 µM calcium chloride, experiment 5",1.0684
same,Estimate (difference between means of log values),"[1]; 50 µM, no EDTA, pH 4, + 100 µM calcium chloride, experiment 1",0.6973
same,Estimate (difference between means of log values),"[1]; 50 µM, no EDTA, pH 4, + 100 µM calcium chloride, experiment 2",1.1772
same,Estimate (difference between means of log values),"[1]; 50 µM, no EDTA, pH 4, + 100 µM calcium chloride, experiment 3",0.01412
same,Estimate (difference between means of log values),"[1]; 50 µM, no EDTA, pH 4, + 100 µM calcium chloride, experiment 4",1.0688
same,Estimate (difference between means of log values),"[1]; 50 µM, no EDTA, pH 4, + 100 µM calcium chloride, experiment 5",0.1005
same,Estimate (difference between means of log values),"[1]; 50 µM, no EDTA, pH 4, + 200 µM calcium chloride, experiment 1",1.0661
same,Estimate (difference between means of log values),"[1]; 50 µM, no EDTA, pH 4, + 200 µM calcium chloride, experiment 2",0.6082
same,Estimate (difference between means of log values),"[1]; 50 µM, no EDTA, pH 4, + 200 µM calcium chloride, experiment 3",-0.8572
same,Estimate (difference between means of log values),"[1]; 50 µM, no EDTA, pH 4, + 200 µM calcium chloride, experiment 4",0.6184
same,Estimate (difference between means of log values),"[1]; 50 µM, no EDTA, pH 4, + 200 µM calcium chloride, experiment 5",-1.1924
same,Estimate (difference between means of log values),"[1]; 50 µM, no EDTA, pH 4, no calcium, experiment 1",5.4425
same,Estimate (difference between means of log values),"[1]; 50 µM, no EDTA, pH 4, no calcium, experiment 2",4.7863
same,Estimate (difference between means of log values),"[1]; 50 µM, no EDTA, pH 4, no calcium, experiment 3",3.5454
same,Estimate (difference between means of log values),"[1]; 50 µM, no EDTA, pH 4, no calcium, experiment 4",4.0909
same,Estimate (difference between means of log values),"[1]; 50 µM, no EDTA, pH 4, no calcium, experiment 5",3.8004
same,Estimate (difference between means of log values),"[1]; 140 µM + 0.5 mM calcium, pH 4, experiment 1",1.0371
same,Estimate (difference between means of log values),"[1]; 140 µM + 0.5 mM calcium, pH 4, experiment 2",0.7970
same,Estimate (difference between means of log values),"[1]; 140 µM + 0.5 mM calcium, pH 4, experiment 3",-0.5619
same,Estimate (difference between means of log values),"[1]; 140 µM + 0.5 mM calcium, pH 4, experiment 4",0.4135
same,Estimate (difference between means of log values),"[1]; 140 µM + 0.5 mM magnesium, pH 4, experiment 1",5.4081
same,Estimate (difference between means of log values),"[1]; 140 µM + 0.5 mM magnesium, pH 4, experiment 2",4.1263
same,Estimate (difference between means of log values),"[1]; 140 µM + 0.5 mM magnesium, pH 4, experiment 3",2.8985
same,Estimate (difference between means of log values),"[1]; 140 µM + 0.5 mM magnesium, pH 4, experiment 4",5.0596
same,Estimate (difference between means of log values),"[1]; 140 µM, pH 4, experiment 1",5.5432
same,Estimate (difference between means of log values),"[1]; 140 µM, pH 4, experiment 2",4.1263
same,Estimate (difference between means of log values),"[1]; 140 µM, pH 4, experiment 3",2.8985
same,Estimate (difference between means of log values),"[1]; 140 µM, pH 4, experiment 4",4.7326
same,Calcium concentration that completely inhibited the antifungal activity,[1]; neutral pH (MSP66–76 with equimolar EDTA),50 µM
same,Liposome leakage,[2]; +EDTA,0%
same,Liposome leakage,[2]; without EDTA,0%

# Reference: paper PMC3320615, “β-Microseminoprotein Endows Post Coital Seminal Plasma with Potent Candidacidal Activity by a Calcium- and pH-Dependent Mechanism” (PLoS Pathogens, 2012)
